This note sets out measurements from patent US20250270172A1, “Pyrimidine Derivatives As Modulators of the 5-HT2A Serotonin Receptor Useful For The Treatment of Disorders Related Thereto” (Arena Pharmaceuticals, Inc., priority 2020, published 2025).

Test [1] concerns the target T1, 5-HT2A (Homo sapiens (Human), UniProt P28223). Kind of test: Radioligand binding assay, [^3H]5-HT competition, 5-HT2A. The conditions noted are these: [^3H]5-HT radioligand, membranes of HEK293 cells expressing recombinant 5-HT2A; Ki from IC50 by Cheng-Prusoff; read-out: 5-HT2A serotonin binding Ki value.
Test [2] concerns the target T1, 5-HT2A. Put plainly: HTRF IP-One antagonist assay, 5-HT2A.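 Further: clonal line with low receptor density (about 50–70 fmol/mg), 10-point dose-response from 10 µM in 5-fold steps, HTRF detection after 1 hr, triplicate points.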 It is filed as cell-based. The conditions noted are these: HEK293 cells stably expressing receptor, inositol phosphate accumulation, 80 nM 5-HT in Assay Buffer.
The target of another test is 5-HT2B (Homo sapiens (Human), UniProt P41595). Kind of test: HTRF IP-One antagonist assay, 5-HT2B.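 Further: clonal HEK293 line with low 5-HT2B expression (estimated 150-200 fmol/mg by radioligand binding), IP-One HTRF readout, 10-point curves from 10 µM in 5-fold steps, triplicate points.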 It is filed as cell-based. The conditions noted are these: HEK293 cells stably expressing receptor, inositol phosphate accumulation, 80 nM 5-HT in Assay Buffer.
The next test deals with 5-HT2C (Homo sapiens (Human), UniProt P28335). Kind of test: HTRF IP-One antagonist assay, 5-HT2C.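 Further: clonal HEK293 line with low 5-HT2C density (10–20 fmol/mg), HTRF detection of IP-One, 10-point dose curves from 10 µM in 5-fold steps, triplicate points.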 The conditions noted are these: HEK293 cells stably expressing receptor, inositol phosphate accumulation, 80 nM 5-HT in Assay Buffer. Type of test: cell-based.

Where “and” joins values, the source holds several entries; their conditions need not be identical. Identical values can stand only once.

Chain of 5-HT2B (P41595 whole entry): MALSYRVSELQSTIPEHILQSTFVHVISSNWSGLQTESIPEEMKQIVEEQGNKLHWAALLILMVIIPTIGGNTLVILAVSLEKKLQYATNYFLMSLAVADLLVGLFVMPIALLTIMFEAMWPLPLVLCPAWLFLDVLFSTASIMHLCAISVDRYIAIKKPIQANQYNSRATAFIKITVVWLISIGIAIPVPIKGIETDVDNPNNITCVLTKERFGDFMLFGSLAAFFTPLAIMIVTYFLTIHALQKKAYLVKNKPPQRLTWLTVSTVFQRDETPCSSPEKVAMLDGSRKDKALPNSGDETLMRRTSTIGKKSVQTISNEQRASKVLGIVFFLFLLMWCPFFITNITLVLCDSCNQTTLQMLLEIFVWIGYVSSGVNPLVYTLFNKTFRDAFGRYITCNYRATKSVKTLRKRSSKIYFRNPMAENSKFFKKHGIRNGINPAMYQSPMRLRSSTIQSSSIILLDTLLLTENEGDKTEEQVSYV
Chain of 5-HT2C (P28335 33-458): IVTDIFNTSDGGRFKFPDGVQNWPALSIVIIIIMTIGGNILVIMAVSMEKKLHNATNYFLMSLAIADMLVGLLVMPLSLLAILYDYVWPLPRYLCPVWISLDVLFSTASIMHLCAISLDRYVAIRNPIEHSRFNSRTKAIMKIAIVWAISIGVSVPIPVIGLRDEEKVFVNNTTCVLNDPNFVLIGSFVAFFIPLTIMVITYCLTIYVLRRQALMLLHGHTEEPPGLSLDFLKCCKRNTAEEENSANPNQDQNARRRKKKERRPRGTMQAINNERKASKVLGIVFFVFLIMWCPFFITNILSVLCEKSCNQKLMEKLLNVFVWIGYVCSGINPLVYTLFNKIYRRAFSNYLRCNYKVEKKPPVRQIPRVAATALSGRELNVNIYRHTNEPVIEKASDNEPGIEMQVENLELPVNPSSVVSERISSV
T1 sequence (P28223 whole entry): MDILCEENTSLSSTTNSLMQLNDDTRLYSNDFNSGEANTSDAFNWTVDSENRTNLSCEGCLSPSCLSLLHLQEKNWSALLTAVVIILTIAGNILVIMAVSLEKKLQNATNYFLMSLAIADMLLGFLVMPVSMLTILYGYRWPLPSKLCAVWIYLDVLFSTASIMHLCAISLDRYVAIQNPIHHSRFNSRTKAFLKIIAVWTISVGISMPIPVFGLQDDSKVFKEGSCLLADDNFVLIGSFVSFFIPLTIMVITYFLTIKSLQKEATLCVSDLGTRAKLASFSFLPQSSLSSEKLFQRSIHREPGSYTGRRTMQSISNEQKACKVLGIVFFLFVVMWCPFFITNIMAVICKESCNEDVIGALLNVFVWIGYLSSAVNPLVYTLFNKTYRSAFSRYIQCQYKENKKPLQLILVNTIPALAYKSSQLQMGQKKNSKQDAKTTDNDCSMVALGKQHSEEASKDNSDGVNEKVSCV

Take `Cc1ncnc(C)c1-c1cc(NC(=O)c2cccn2C)ccc1OCCN1CCCC1` [Compound 200, N-(3-(4,6-dimethylpyrimidin-5-yl)-4-(2-(pyrrolidin-1-yl)ethoxy)phenyl)-1-methyl-1H-pyrrole-2-carboxamide]: the inhibition constant (Ki) on 5-HT2A [1] came to 3.72 nM. The IC50 worked out at 11.7 nM at 5-HT2A [2], 100000 nM on 5-HT2B and 100000 nM against 5-HT2C.

As for `Cc1ncnc(C)c1-c1cc(NC(=O)c2ccnn2C)ccc1OCCN1CCCC1` [Compound 202, N-(3-(4,6-dimethylpyrimidin-5-yl)-4-(2-(pyrrolidin-1-yl)ethoxy)phenyl)-1-methyl-1H-pyrazole-5-carboxamide], on 5-HT2A [1], the Ki came to 5.25 nM. In addition, the IC50 against 5-HT2A [2] came to 6.35 nM; against 5-HT2B it was 100000 nM; against 5-HT2C it was 100000 nM.

In the case of `Cc1ncnc(C)c1-c1cc(NC(=O)c2cc(F)ccn2)ccc1OCCN1CCCC1` [Compound 209, N-(3-(4,6-dimethylpyrimidin-5-yl)-4-(2-(pyrrolidin-1-yl)ethoxy)phenyl)-4-fluoropicolinamide], the Ki at 5-HT2A [1] worked out at 4.8 nM. The IC50 on 5-HT2A [2] came out at 26.2 nM; on 5-HT2B it was 100000 nM; against 5-HT2C, 100000 nM.

On to `Cc1ncsc1C(=O)Nc1ccc(OCCN2CCCC2)c(-c2c(C)ncnc2C)c1` [Compound 214, N-(3-(4,6-dimethylpyrimidin-5-yl)-4-(2-(pyrrolidin-1-yl)ethoxy)phenyl)-4-methylthiazole-5-carboxamide], for which the inhibitory constant (Ki) on 5-HT2A [1] was 3.25 nM. For the same compound, the IC50 stood at 5.16 nM on 5-HT2A [2], 100000 nM against 5-HT2B and 100000 nM against 5-HT2C.

Consider `Cc1ncoc1C(=O)Nc1ccc(OCCN2CCCC2)c(-c2c(C)ncnc2C)c1` [Compound 217, N-(3-(4,6-dimethylpyrimidin-5-yl)-4-(2-(pyrrolidin-1-yl)ethoxy)phenyl)-4-methyloxazole-5-carboxamide], for which the Ki at 5-HT2A [1] was determined as 7.23 nM. Further, the values for the IC50 at 5-HT2A [2], against 5-HT2B and against 5-HT2C were 18.5 nM, 100000 nM and 100000 nM, respectively.

In the case of `Cc1ncnc(C)c1-c1cc(NC(=O)C2C3COCC32)ccc1OCCN1CCCC1` (stereo not drawn) [Compound 232, N-(3-(4,6-dimethylpyrimidin-5-yl)-4-(2-(pyrrolidin-1-yl)ethoxy)phenyl)-3-oxabicyclo[3.1.0]hexane-6-carboxamide], the Ki on 5-HT2A [1] came out at 24.5 nM. Moreover, the half-maximal inhibitory concentration (IC50) worked out at 140 nM against 5-HT2A [2], 100000 nM against 5-HT2B and 100000 nM at 5-HT2C.

Take `Cc1ncnc(C)c1-c1cc(NC(=O)C2(F)CC2)ccc1OCCN1CCCC1` [Compound 233]: the Ki at 5-HT2A [1] is 3.81 nM and 4.66 nM. The results for the IC50 against 5-HT2A [2], against 5-HT2B and at 5-HT2C were 8.55 nM, 100000 nM and 100000 nM, respectively.

For the compound `Cc1ncnc(C)c1-c1cc(NC(=O)Cn2cccc2)ccc1OCCN1CCCC1` [Compound 243, N-[3-(4,6-dimethylpyrimidin-5-yl)-4-(2-pyrrolidin-1-ylethoxy)phenyl]-2-pyrrol-1-yl-acetamide], at 5-HT2A [1], the Ki came to 8.59 nM. The half-inhibitory concentration (IC50) against 5-HT2A [2] amounted to 14.8 nM; against 5-HT2B it was 100000 nM; against 5-HT2C, 100000 nM.

Turning to `COC1(C(=O)Nc2ccc(OCCN3CCCC3)c(-c3c(C)ncnc3C)c2)CC1` [Compound 244, N-[3-(4,6-dimethylpyrimidin-5-yl)-4-(2-pyrrolidin-1-ylethoxy)phenyl]-1-methoxy-cyclopropanecarboxamide], on 5-HT2A [1], the Ki amounted to 6.51 nM. Also, the IC50 on 5-HT2A [2] was determined as 13.5 nM; against 5-HT2B it was 100000 nM; on 5-HT2C it was 100000 nM.

Take `Cc1ncnc(C)c1-c1cc(NC(=O)C2CC2)ccc1OCCN1CCCC1` [Compound 245, N-[3-(4,6-dimethylpyrimidin-5-yl)-4-(2-pyrrolidin-1-ylethoxy)phenyl]cyclopropanecarboxamide]: the inhibitory constant (Ki) on 5-HT2A [1] amounted to 4.3 nM. Also, the IC50 was 9.66 nM on 5-HT2A [2], 100000 nM at 5-HT2B and 100000 nM at 5-HT2C.

For the compound `Cc1ncnc(C)c1-c1cc(NC(=O)Cc2cncs2)ccc1OCCN1CCCC1` [Compound 247, N-[3-(4,6-dimethylpyrimidin-5-yl)-4-(2-pyrrolidin-1-ylethoxy)phenyl]-2-thiazol-5-yl-acetamide], the Ki at 5-HT2A [1] was 4.47 nM. Besides, the IC50 stood at 10.6 nM on 5-HT2A [2], 100000 nM at 5-HT2B and 100000 nM on 5-HT2C.

For the compound `Cc1ncsc1CC(=O)Nc1ccc(OCCN2CCCC2)c(-c2c(C)ncnc2C)c1` [Compound 250, N-(3-(4,6-dimethylpyrimidin-5-yl)-4-(2-(pyrrolidin-1-yl)ethoxy)phenyl)-2-(4-methylthiazol-5-yl)acetamide], on 5-HT2A [1], the Ki came to 9.04 nM. In addition, the results for the IC50 against 5-HT2A [2], against 5-HT2B and at 5-HT2C were 13.9 nM, 100000 nM and 100000 nM, respectively.

On to `Cc1ncnc(C)c1-c1cc(NC(=O)CCc2nccs2)ccc1OCCN1CCCC1` [Compound 256, N-(3-(4,6-dimethylpyrimidin-5-yl)-4-(2-(pyrrolidin-1-yl)ethoxy)phenyl)-3-(thiazol-2-yl)propanamide], for which the Ki on 5-HT2A [1] is 9.89 nM. The IC50 stood at 56 nM on 5-HT2A [2], 100000 nM against 5-HT2B and 100000 nM at 5-HT2C.

For the compound `Cc1ncnc(C)c1-c1cc(NC(=O)CCc2cncs2)ccc1OCCN1CCCC1` [Compound 257, N-(3-(4,6-dimethylpyrimidin-5-yl)-4-(2-(pyrrolidin-1-yl)ethoxy)phenyl)-3-(thiazol-5-yl)propanamide], the Ki on 5-HT2A [1] came out at 14.8 nM. Also, the figures for the IC50 at 5-HT2A [2], against 5-HT2B and on 5-HT2C were 33.5 nM, 100000 nM and 100000 nM, respectively.

`Cc1ncnc(C)c1-c1cc(NC(=O)Cc2ccno2)ccc1OCCN1CCCC1` [Compound 263, N-(3-(4,6-dimethylpyrimidin-5-yl)-4-(2-(pyrrolidin-1-yl)ethoxy)phenyl)-2-(isoxazol-5-yl)acetamide]: the inhibition constant Ki at 5-HT2A [1] is 10.1 nM. Also, the results for the IC50 on 5-HT2A [2], against 5-HT2B and on 5-HT2C were 35.9 nM, 100000 nM and 100000 nM, respectively.

As for `Cc1ncc(CC(=O)Nc2ccc(OCCN3CCCC3)c(-c3c(C)ncnc3C)c2)s1` [Compound 266, N-(3-(4,6-dimethylpyrimidin-5-yl)-4-(2-(pyrrolidin-1-yl)ethoxy)phenyl)-2-(2-methylthiazol-5-yl)acetamide], the Ki at 5-HT2A [1] stood at 4.11 nM. In addition, the IC50 was 5.23 nM on 5-HT2A [2], 100000 nM against 5-HT2B and 100000 nM on 5-HT2C.

Take `Cc1ncnc(C)c1-c1cc(NC(=O)Cc2ccn(C)c2)ccc1OCCN1CCCC1` [Compound 268, N-[3-(4,6-dimethylpyrimidin-5-yl)-4-(2-pyrrolidin-1-ylethoxy)phenyl]-2-(1-methylpyrrol-3-yl)acetamide]: on 5-HT2A [1], the Ki came to 7.78 nM. In addition, the values for the IC50 on 5-HT2A [2], on 5-HT2B and at 5-HT2C were 62.4 nM, 100000 nM and 100000 nM, respectively.

As for `Cc1ncnc(C)c1-c1cc(NC(=O)c2ccccc2)ccc1OCCN1CCCC1` [Compound 271, N-[3-(4,6-dimethylpyrimidin-5-yl)-4-(2-pyrrolidin-1-ylethoxy)phenyl]benzamide], the Ki on 5-HT2A [1] is 3.26 nM. The IC50 at 5-HT2A [2] came out at 6.1 nM; against 5-HT2B it was 100000 nM; against 5-HT2C, 100000 nM.

Consider `Cc1ncnc(C)c1-c1cc(NC(=O)c2ccc(F)cc2)ccc1OCCN1CCCC1` [Compound 272, N-(3-(4,6-dimethylpyrimidin-5-yl)-4-(2-(pyrrolidin-1-yl)ethoxy)phenyl)-4-fluorobenzamide], for which, on 5-HT2A [1], the Ki was 2.43 nM. For the same compound, the IC50 at 5-HT2A [2] worked out at 7.8 nM; against 5-HT2B it was 2680 nM; against 5-HT2C, 100000 nM.

For `Cc1ncnc(C)c1-c1cc(NC(=O)Cc2cccc(F)c2)ccc1OCCN1CCCC1` [Compound 275, N-(3-(4,6-dimethylpyrimidin-5-yl)-4-(2-(pyrrolidin-1-yl)ethoxy)phenyl)-2-(3-fluorophenyl)acetamide], the Ki at 5-HT2A [1] turned out to be 1.7 nM. For the same compound, the figures for the 50% inhibitory concentration (IC50) on 5-HT2A [2], against 5-HT2B and at 5-HT2C were 6.32 nM, 100000 nM and 100000 nM, respectively.

As for `COc1ccc(CC(=O)Nc2ccc(OCCN3CCCC3)c(-c3c(C)ncnc3C)c2)cc1` [Compound 276, N-(3-(4,6-dimethylpyrimidin-5-yl)-4-(2-(pyrrolidin-1-yl)ethoxy)phenyl)-2-(4-methoxyphenyl)acetamide], at 5-HT2A [1], the Ki was 0.843 nM. Besides, the figures for the IC50 at 5-HT2A [2], against 5-HT2B and on 5-HT2C were 3.07 nM, 100000 nM and 100000 nM, respectively.

On to `Cc1ccccc1C(=O)Nc1ccc(OCCN2CCC2)c(-c2c(C)ncnc2C)c1` [Compound 321, N-(4-(2-(azetidin-1-yl)ethoxy)-3-(4,6-dimethylpyrimidin-5-yl)phenyl)-2-methylbenzamide], for which the IC50 was 25.7 nM against 5-HT2A [2], 5400 nM at 5-HT2B and 100000 nM against 5-HT2C.

As to `Cc1ncnc(C)c1-c1cc(NC(=O)c2ncsc2C)ccc1OC[C@H]1CCCCN1` [Compound 435, (R)—N-(3-(4,6-dimethylpyrimidin-5-yl)-4-(piperidin-2-ylmethoxy)phenyl)-5-methylthiazole-4-carboxamide], the Ki at 5-HT2A [1] came to 10.7 nM. Moreover, the IC50 against 5-HT2A [2] was 43.2 nM; on 5-HT2C, 100000 nM.

For the compound `Cc1ncnc(C)c1-c1cc(NC(=O)c2cccn2C)ccc1OC[C@H]1CCCCN1` [Compound 436, (R)—N-(3-(4,6-dimethylpyrimidin-5-yl)-4-(piperidin-2-ylmethoxy)phenyl)-1-methyl-1H-pyrrole-2-carboxamide], the Ki on 5-HT2A [1] was determined as 6.05 nM. The IC50 turned out to be 27.2 nM against 5-HT2A [2] and 100000 nM against 5-HT2C.

For the compound `CCC[C@@H](F)C(=O)Nc1ccc(OC[C@H]2CCCCN2)c(-c2c(C)ncnc2C)c1` [Compound 441, (R)—N-[3-(4,6-dimethylpyrimidin-5-yl)-4-[[(2R)-2-piperidyl]methoxy]phenyl]-2-fluoro-pentanamide], the Ki on 5-HT2A [1] was found to be 5.67 nM. In addition, the IC50 on 5-HT2A [2] came out at 12.1 nM; against 5-HT2C, 100000 nM.
